The source of these data is patent US20090311695A1, “Method” (priority 2008, published 2009).

Entries after “also recorded” stand apart in the source; their conditions may differ. Like-named read-outs stand apart in the source and are kept apart here.

Test [1] has as its system translation readthrough of in-frame stop signal. Kind of test: enzyme-based dual-reporter (β-gal-luciferase) readthrough assay, constructs H8 and H8A. The test is classed as cell-based. The source says:
(A) An outline of the single cell-based translation readthrough assay. The principle of the reporter system is similar to that mentioned in FIG. 2 with the exception that it contains a translation termination signal in the exon 12. In the event of translation termination at the internal PTC, a DsRed-Express protein will be generated whilst readthrough will produce a fusion dual-fluorescence protein (DsRed Express and GFP). Thus the ratio of two fluorescence intensities determines the efficiency of readthrough. […] (C) Cell expressing fluorescence proteins were analyzed with FACS. Cell transfected with pTN139 generated the highest population of dual-fluorescence cells (FIG. 5Civ), whilst pTN142 produced no or few dual-fluorescence cells. […] GFP (FIG. 5Cii) and DsRed-Express (FIG. 5Ciii) proteins expressing cells were used as fluorescence positive control, whilst untransfected cells (FIG. 5Ci) were used as negative control. […] In the event of readthrough, a β-gal-luciferase fusion protein will be produced. The ratio of these two proteins was used as the efficiency of readthrough event. […]
To further validate the efficiency determined by fluorescence assays, we employed an enzyme-based reporter assay. […] In the event of translation termination, β-gal protein is generated, whilst readthrough produces a β-gal and luciferase fusion protein. […]

The test system of test [2] is translation readthrough of PTC in exon 12 of BMPR2. The test is classed as cell-based. Particulars: for population of dual-fluorescence cells (FACS): 293 cells transfected with pTN142; for ratio of DsRed-Express and GFP production (efficiency of readthrough), plate readers: fluorescence monochrome and filter plate readers, data not shown. The source says:
(A) An outline of the single cell-based translation readthrough assay. The principle of the reporter system is similar to that mentioned in FIG. 2 with the exception that it contains a translation termination signal in the exon 12. In the event of translation termination at the internal PTC, a DsRed-Express protein will be generated whilst readthrough will produce a fusion dual-fluorescence protein (DsRed Express and GFP). Thus the ratio of two fluorescence intensities determines the efficiency of readthrough. […] (C) Cell expressing fluorescence proteins were analyzed with FACS. Cell transfected with pTN139 generated the highest population of dual-fluorescence cells (FIG. 5Civ), whilst pTN142 produced no or few dual-fluorescence cells. […] GFP (FIG. 5Cii) and DsRed-Express (FIG. 5Ciii) proteins expressing cells were used as fluorescence positive control, whilst untransfected cells (FIG. 5Ci) were used as negative control. (FIG. 5D) The outline of the enzymatic reporter was published elsewhere (Kollmus et al., 1996, Nasim et al., 2000). In brief, translation termination in the internal stop signal generates β-gal protein. In the event of readthrough, a β-gal-luciferase fusion protein will be produced. The ratio of these two proteins was used as the efficiency of readthrough event. For this purpose, two independent constructs were used in our experiment. Construct H8 (pBPLUGA; Kollmus et al., 1996) contains a 17 bp DNA fragment containing an in-frame stop signal. H8A construct (Nasim et al., 2000) is similar to H8 with the exception that it contains a 91 bp DNA fragment.
Single-cell based dual-fluorescence splicing assay constructs were generated by replacing exon 9 of plasmid pTN136 with exon 12 of BMPR2 gene using PCR mutagenesis (14). The resultant splicing unit was cloned into Xho I and Bam HI sites of DsRed Express-GFP vector (Siskoglu and Nasim, unpublished data) and designated as pTN139. Further plasmids pTN140, pTN141, pTN142 and pTN143 bearing mutations in exon 12 at position c.2292insA, c.2386delG, c.2620G>T and c.2695C>T, respectively were generated. A double intron splicing unit was constructed by fusing an additional splicing unit of HC9 (15) at the 3′end of the Ad-Exon 12 unit of pTN136. The splicing unit of HC9 comprises the last 17 nucleotides of the non-muscle exon (NM) of human TPM3 gene together with the following 80-nucleotide intron, which was joined to a fragment of human dystrophin gene containing the last 260 nucleotides of intron 11 followed by the 100 nucleotides of exon 12. The double-intron splicing unit was cloned into EcoRI and KpnI sites of DsRed-Express-GFP vector and designated as pTN153. Plasmid pTN155 is a derivative of pTN153 and harbours a mutation in exon 12 at position c.2386delG.
Gene Transfer, cell culture, enzymatic assay, fluorescence microscopy and fluorescence activated cell sorting (FACS) were carried as described elsewhere (11), (15), (17). Amount of plasmid DNA transfected into HEK293 cell line varied from (from 30 ng to 1 μg) assay to assay.
In addition to PAH, there are also more than 1800 genetic disorders caused by nonsense mutation. Two approaches are currently available to overcome nonsense-associated genetic diseases. […] The aim of other approach is to suppress pre-mature termination; in other words to promote translation readthrough. As the dual-fluorescence assay was successfully utilized to characterize the PTC, we next wished to investigate whether the system can be used to identify factors that promote translation readthrough. To achieve this, we introduced a nonsense mutation into the exon 12 of the BMPR2 gene in such a way that it incorporates a PTC (FIG. 5A). In the event of readthrough, a fusion dual-fluorescence protein (DsRed Express and GFP) will be produced, whilst translation termination generates only DsRed-Express protein. Thus the ratio of two fluorescence intensities determines the efficiency of readthrough. […]

The subject of test [3] is nonsense codon read-through. As to conditions: literature values; cited from earlier work.
Test [4] deals with nonsense mediated RNA decay. Kind of test: β-galactosidase reporter based NMD assay (gal-luc ratio) with PTC bearing double intron splicing unit. The test is classed as cell-based. Particulars: reporter with c.2386delG or c.2292insA PTC, after treatment with translation/NMD inhibitor. The source says: (A) The test system for determining nonsense mediated RNA decay in mammalian cells based on the reporter gene encoding β-galactosidase, which was fused in-frame with the PTC (c.2386delG, c.2292insA) bearing recombinant double intron splicing unit (FIG. 4A). Plasmids bearing c.2292insA (pTN147) and c.2386delG (pTN148) mutations were transfected into HE 293 cells and grown in the presence or absence of NMD inhibitors including puromycin and cycloheximide. The treatments increased the gal-luc ratio of the reporter constructs between 5 and 20 fold (FIG. 4B) compared with untreated control. Compared with cells transfected with the reporter alone, the gal-luc ratio increased between 3 and 6 fold when hUpf1 RNA was knock down by RNAi (FIG. 4C).
Constructs for determining NMD were generated by fusing the double-intron splicing unit of pTN155 at the end of β-galactosidase reporter gene. The double-intron splicing intron was cloned in two steps into pBPLUGA (16). First the splicing unit of HC9 as described above was PCR amplified and cloned into KpnI and BamHI sites of pBPLUGA. The splicing unit of pTN136 was then cloned into SalI/XhoI and BamHI sites of the newly constructed plasmid and designated as pTN148. […]
Gene Transfer, cell culture, enzymatic assay, fluorescence microscopy and fluorescence activated cell sorting (FACS) were carried as described elsewhere (11), (15), (17). […]

Test [5] has as its system translation readthrough of in-frame PTC. Kind of test: swapped GFP-DsRedExpress dual-fluorescence readthrough assay, plate reader. As to conditions: HEK293 cells, medium with 0.1% fetal bovine serum, 3-5 days, BMG Labtech plate reader. The test is classed as cell-based. The source says:
An outline of the dual-fluorescence reporter. The underlying principle of the reporter is similar to that mentioned above with the exception that the DsRed-express gene is located downstream of the GFP reporter (FIG. 7A). Following transfection the reporter harbouring an in-frame PTC produced only GFP protein (FIG. 7B). The reporter produced both GFP and DsRedExpress proteins following the exchange of the PTC to a sense codon.
A step-by-step outline of the translation readthrough assay (FIG. 8A).
A potential complication of the fluorescence approach was that of an autofluorescence which might interfere with the GFP fluorescence. To address this potential limitation, another set of vector was constructed. In this set of vectors the GFP and DsRed-Express reporters were swapped in such that the GFP is expressed regardless of translation readthrough, whilst the readthrough activates the expression of DsRed-Express protein (FIG. 7A). […] The reporter produced both GFP and DsRed-Express dual-fluorescences once the PTC codon was changed to a sense codon.
We next wished to determine the ratio of DsRed-Express and GFP production, which represents the efficiency of readthrough (FIG. 8A). […] The growth medium was discarded, cells were washed with PBS and the fluorescence intensities were determined using a fluorescence (BMG Labtech) plate reader.

As for `CN[C@@H]1[C@@H](O)[C@@H](O[C@@H]2[C@@H](O)[C@H](O[C@H]3O[C@H]([C@@H](C)O)[C@@H](O)[C@H](O)[C@H]3N)[C@@H](N)C[C@H]2N)OC[C@]1(C)O` [G418 sulphate], in test [1], the “ratio of gal-luc activity (readthrough efficiency)” value was “promoted readthrough efficiency; also recorded: markedly increased”. Also, the entries for the “population of dual-fluorescence cells (FACS)” value in test [2] and in test [2] (listed as G418) were “markedly increased” and “significantly high population of dual-fluorescence cells”, respectively. Further, the dual-fluorescence of cells entry in test [2] (293 cells, PTC construct, 5 days after treatment) was “generated dual-fluorescence”. In addition, the “ratio of DsRed-Express and GFP production (efficiency of readthrough), plate readers” value in test [2] is “promoted translation readthrough”.
`O=C(O)c1cccc(-c2noc(-c3ccccc3F)n2)c1` [PTC124]: in test [3], the read-through efficiencies is recorded as 2-10%.
With `C[C@@H]1C[C@@H]([C@H](O)CC2CC(=O)NC(=O)C2)C(=O)[C@@H](C)C1` [cycloheximide], the “increase in the reporter protein” value in test [4] was 5 fold.
For `COc1ccc(C[C@H](N)C(=O)N[C@H]2[C@@H](O)[C@H](n3cnc4c(N(C)C)ncnc43)O[C@@H]2CO)cc1` [puromycin], the “increase in the reporter protein” value in test [4] was determined as 20 fold.
With gentamicin, in test [1], the “ratio of gal-luc activity (readthrough efficiency)” value was “promoted readthrough efficiency”. The “ratio of GFP and DsRedExpress fluorescence intensities (efficiency of readthrough)” value in test [5] is “promoted the ratio of GFP and DsRedExpress fluorescence intensities; also recorded: promoted translation readthrough”. For the same compound, in test [2], the “population of dual-fluorescence cells (FACS)” value was “significantly high population of dual-fluorescence cells; also recorded: markedly increased”; the “ratio of DsRed-Express and GFP production (efficiency of readthrough), plate readers” value is “promoted translation readthrough”.
